7 compounds from patent publication US7585885B2, “Pyrrolidine derivatives useful as BACE inhibitors” (Eli Lilly and Company, priority 2004, dated 2009) can be followed below.

The target of assay [1] is T1, human BACE1 (1-460):Fc (Homo sapiens, UniProt P56817).
T1 construct: made in house; host or cells: HEK293 (transient transfection, purified from conditioned media on Protein A-agarose)
In words: BACE1 mcaFRET Assay. It is filed as biochemical. To be noted: FRET substrate 15 micromolar, pH 4.6, room temperature 16 to 24 hours. How it is done:
(§1) For in vitro enzymatic and cellular assays, test compounds are prepared in DMSO to make up a 10 millimolar stock solution. The stock solution is serially diluted (in a 1:3, 1:2.5, 1:2, or 1:1 dilution series) in DMSO to obtain a final compound concentration of 10 millimolar to 1 micromolar at the first highest concentration of a ten-point dilution curve in a 96-well round-bottom plate right before conducting the in vitro enzymatic and whole assays.
Serial dilutions of test compounds are prepared as described above. Two microliter of each dilution is added to each well on row A to H of a corresponding low protein binding black plate to which 50 microliter of 50 millimolar ammonium acetate, pH 4.6, 1 mM Triton X-100, 1 mg/ml Bovine Serum Albumin, and 15 micromolar of FRET substrate (sequence: (MCA)-S-E-V-N-L-D-A-E-F-R-K(Dnp)-R-R-R-R-NH2) for BACE1 activity are pre-added. The content is mixed well on a plate shaker for 10 min. Fifty microliter of two hundred picomolar human BACE1 (1-460):Fc (See: Vasser, et al., Science, 286, 735-741 (1999)) in the same reaction buffer described above is added to the plate containing substrate and test compounds to initiate the reaction. The relative fluorescence unit (RFU) of the mixture at time 0 is recorded at excitation wavelength 330 nm and emission wavelength 400 nm, after brief mixing on a plate shaker. The reaction plate is covered with aluminum foil and kept in a dark humidified oven at room temperature for 16 to 24 hours. The RFU at the end of incubation is recorded with the same excitation and emission setting. The difference of the RFU at time 0 and the end of incubation represents the activity of BACE1 under the compound treatment. The 10-point inhibition curve was plotted and fitted with the four-parameter logistic equation to obtain the EC50 and IC50 values. (See: Sinha, et al., Nature, 402, 537-540 (2000)). […] Data for selected compounds of the invention tested in this assay are contained in the following table.
Both human (accession number: AF190725) and murine (accession number: NM_011792) BACE1 were cloned from total brain cDNA by […]. The nucleotide sequences corresponding to amino acid sequences #1 to 460 were inserted into the cDNA encoding human IgG1 (Fc) polypeptide (Vassar et al. 1999). This fusion protein of BACE1 (1-460) and human Fc, named huBACE1:Fc, was constructed into the pJB02 vector. Human BACE1(1-460):Fc (huBACE1:Fc) and murine BACE1(1-460):Fc (muBACE1:Fc) were transiently expressed in HEK293 cells. 250 μg cDNA of each construct was mixed with Fugene 6 and added to 1 liter HEK293 cells. Four days after the transfection, conditioned media were harvested for purification.
Conditioned media of HEK293 cell transiently transfected with huBACE1:Fc or muBACE1:Fc cDNA were collected. Cell debris was removed by filtering the conditioned media through 0.22 μm sterile filter. 5 ml Protein A-agarose (bed volume) was added to 4 liter conditioned media. This mixture was gently stirred overnight at 4° C. The Protein A-agarose resin was collected and packed into a low-pressure chromatography column. The column washed with 20× bed volumes of PBS at flow rate 20 ml per hour. Bound huBACE1:Fc or muBACE1:Fc protein was eluted with 50 mM acetic acid, pH 3.6, at flow rate 20 ml per hour. 1 ml fractions of eluate were neutralized immediately with 0.5 ml 200 mM ammonium acetate, pH 6.5. The purity of final product was assessed by electrophoresis in 4-20% Tris-Glycine SDS-PAGE. The enzyme was stored at −80 C in small aliquots.

In assay [2] the target is T2, beta-secretase activity (Homo sapiens, UniProt P56817).
T2 construct: endogenous in cells; host or cells: HEK293p (ATCC CRL-1573) stably expressing human APP751sw or APP751wt
T2 sequence (P56817 46-501): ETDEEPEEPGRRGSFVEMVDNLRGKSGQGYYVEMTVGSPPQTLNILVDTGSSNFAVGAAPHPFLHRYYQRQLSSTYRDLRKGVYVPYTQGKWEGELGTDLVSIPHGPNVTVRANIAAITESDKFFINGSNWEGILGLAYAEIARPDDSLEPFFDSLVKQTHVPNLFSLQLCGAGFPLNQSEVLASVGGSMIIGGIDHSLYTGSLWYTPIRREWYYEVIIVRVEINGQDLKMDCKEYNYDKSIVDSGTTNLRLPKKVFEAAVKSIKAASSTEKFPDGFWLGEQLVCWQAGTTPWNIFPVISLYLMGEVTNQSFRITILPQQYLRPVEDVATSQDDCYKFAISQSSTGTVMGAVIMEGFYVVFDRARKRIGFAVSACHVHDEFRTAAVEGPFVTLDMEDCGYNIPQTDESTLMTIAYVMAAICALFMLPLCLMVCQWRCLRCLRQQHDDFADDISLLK
The assay is described as follows: Whole cell assay for measuring the inhibition of beta-secretase activity. Type of assay: cell-based. The settings on record: HEK293/APP751sw or HEK293/APP751wt cells, 37 C for 4 to 6 hours, sandwich ELISA of conditioned media; read-out: IC50 (Abeta, sAPPbeta-lowering effect). How it is done: as §1
The routine whole cell assay for the measurement of inhibition of beta-secretase activity utilizes the human embryonic kidney cell line HEK293p (ATCC Accession No. CRL-1573) stably expressing a human APP751 cDNA containing the naturally occurring double mutation […] to Asn651Leu652, commonly called the Swedish mutation (noted HEK293/APP751sw) and shown to overproduce Abeta (Citron et al., 1992, Nature 360:672-674). Human embryonic kidney HEK293p cells stably expressing wild-type human APP751 cDNA (noted HEK293/APP751 wt) are also used to assess the inhibition of beta-secretase activity. In vitro Aβ reduction assays have been described in the literature (See: Dovey, et al., Journal of Neurochemistry, 76, 173-181 (2001); Seubert, et al., Nature, 361, 260 (1993); and Johnson-Wood, et al., Proc. Natl. Acad. Sci. USA, 94, 1550-1555 (1997))
Cells (HEK293/APP751sw or HEK293/APP751wt, at 3×10^4 cells/well, containing 200 microliters culture media, DMEM containing 10% FBS) are incubated at 37 C for 4 to 6 hours in the presence/absence of inhibitors (diluted in DMSO) at the desired concentration. At the end of the incubation, conditioned media are analyzed for beta-secretase activity, for example, by analysis of cleavage fragments, Abeta peptide and sAPPbeta. Abeta peptides are measured by a sandwich ELISA, using monoclonal 266 as a capture antibody and biotinylated 3D6 as reporting antibody. The sAPPbeta fragments are analyzed by a sandwich ELISA, using monoclonal 8E5 antibody as a capture antibody and rabbit polyclonal 192sw or 192wt as a reporting antibody. Note that sAPPbeta is the cleavage product of full length APP by BACE1. The concentration of sAPPbeta released in the conditioned media following the compound treatment corresponds to the activity of BACE1 under such conditions. The 10-point inhibition curve was plotted and fitted with the four-parameter logistic equation to obtain the EC50 and IC50 values for the Abeta, sAPPbeta-lowering effect. Data for selected compounds of the invention tested in this assay are contained in the following table.

pIC50: −log10 of the molar value. Structures can show the parent of a compound that is named as a salt.

T1 sequence (P56817 22-460): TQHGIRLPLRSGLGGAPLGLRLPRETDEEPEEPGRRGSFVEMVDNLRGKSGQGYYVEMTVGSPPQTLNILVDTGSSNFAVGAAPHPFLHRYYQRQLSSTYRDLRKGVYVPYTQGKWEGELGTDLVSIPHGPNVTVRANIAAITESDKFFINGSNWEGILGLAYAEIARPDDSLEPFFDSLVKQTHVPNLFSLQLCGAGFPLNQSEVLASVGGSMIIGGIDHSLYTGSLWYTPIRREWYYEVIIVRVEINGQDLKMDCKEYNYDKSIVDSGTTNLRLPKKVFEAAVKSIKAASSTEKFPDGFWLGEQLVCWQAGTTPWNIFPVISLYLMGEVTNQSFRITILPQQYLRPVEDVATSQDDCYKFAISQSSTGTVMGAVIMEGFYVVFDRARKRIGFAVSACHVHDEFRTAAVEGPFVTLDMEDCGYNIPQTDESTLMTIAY

On to `CC(=O)N[C@@H](Cc1cc(F)cc(F)c1)[C@H](O)[C@H]1C[C@@H](CC(=O)N2CCCCCC2)CN1` [Example 41, N-[(1S,2R)-2-[(2R,4S)-4-(2-Azepan-1-yl-2-oxo-ethyl)-pyrrolidin-2-yl]-1-(3,5-difluoro-benzyl)-2-hydroxy-ethyl]-acetamide hydrochloride], for which the pIC50 in assay [1] was 6.42; in assay [2] it was 5.22. Turning to `CC(=O)N[C@@H](Cc1cc(F)cc(F)c1)[C@H](O)[C@H]1C[C@@H](CC(=O)N2CCCCC2)CN1` [Example 33, N-{(1S,2R)-1-(3,5-Difluoro-benzyl)-2-hydroxy-2-[(2R,4S)-4-(2-oxo-2-piperidin-1-yl-ethyl)-pyrrolidin-2-yl]-ethyl}-acetamide hydrochloride], the results for the pIC50 in assay [1] and in assay [2] were 6.09 and 4.85, respectively. For `CCC(C)Nc1cc(C(=O)NC(Cc2ccccc2)C(O)C2CC(F)CN2)cc(N(C)S(C)(=O)=O)n1` [Example 7, N-[1-(S)-Benzyl-2-(R)-(4-(S)-fluoropyrrolidin-2-yl)-2-(R)-hydroxyethyl]-2-(S)-sec-butylamino-6-(methanesulfonyl-methylamino)-isonicotinamide bishydrochloride], the negative logarithm of the IC50 (pIC50) in assay [1] is 8.41; in assay [2], 7.89. Turning to `CC(=O)N[C@@H](Cc1cc(F)cc(F)c1)[C@H](O)[C@H]1C[C@@H](CC(=O)N2CCOCC2)CN1` [Example 35, N-{(1S,2R)-1-(3,5-Difluoro-benzyl)-2-hydroxy-2-[(2R,4S)-4-(2-morpholin-4-yl-2-oxo-ethyl)-pyrrolidin-2-yl]-ethyl}-acetamide hydrochloride], the pIC50 in assay [1] is 5.85. For the compound `CC(=O)N[C@@H](Cc1cc(F)cc(F)c1)[C@H](O)[C@H]1C[C@@H](CC(=O)N(C)C)CN1` [Example 37, 2-{(3S,5R)-5-[(1R,2S)-2-Acetylamino-3-(3,5-difluoro-phenyl)-1-hydroxy-propyl]-pyrrolidin-3-yl}-N,N-dimethyl-acetamide hydrochloride], the pIC50 in assay [1] is 5.28. In assay [1], `CC(=O)N[C@@H](Cc1cc(F)cc(F)c1)[C@H](O)[C@H]1C[C@@H](OCCC2CCCCC2)CN1` [Example 60, N-[(1S,2R)-2-[(2R,4R)-4-(2-Cyclohexyl-ethoxy)-pyrrolidin-2-yl]-1-(3,5-difluoro-benzyl)-2-hydroxy-ethyl]-acetamide hydrochloride] gave a negative logarithm of the IC50 (pIC50) of 5.64. With `CCC(C)Nc1cc(C(=O)NC(Cc2ccccc2)C(O)C2CCCN2)cc(N(C)S(C)(=O)=O)n1` [Example 12, N-((1S,2R)-1-Benzyl-2-hydroxy-2-(R)-pyrrolidin-2-ylethyl)-2-(S)-sec-butylamino-6-(methanesulfonyl-methylamino)-isonicotinamide hydrochloride], the pIC50 in assay [1] is 8.74; in assay [2], 7.82.
